According to publication PMC8200523, “Designing and Development of FRET-Based Nanosensor for Real Time Analysis of N-Acetyl-5-Neuraminic Acid in Living Cells” (Frontiers in Nutrition, 2021):

Experiments:
[1] = molecular target: T1, FLIP-SA (ECFP-SiaP-Venus); sialic acid periplasmic binding protein SiaP (Haemophilus influenzae, UniProt P44542); assay: FRET ratio ([…] nm) titration of purified ECFP-SiaP-Venus sensor; details: PBS 20 mM, pH 6.5-7.0; sensor 0.20 mg/ml; NeuAc 1 nM-1 M; text prints ~157 μM
T1 construct: SiaP without signal peptide and stop codon, inserted at KpnI site between ECFP (N-term) and Venus (C-term); His6 tag of pRSET-B; E. coli BL21(DE3), Ni-NTA
T1 sequence (P44542 24-329): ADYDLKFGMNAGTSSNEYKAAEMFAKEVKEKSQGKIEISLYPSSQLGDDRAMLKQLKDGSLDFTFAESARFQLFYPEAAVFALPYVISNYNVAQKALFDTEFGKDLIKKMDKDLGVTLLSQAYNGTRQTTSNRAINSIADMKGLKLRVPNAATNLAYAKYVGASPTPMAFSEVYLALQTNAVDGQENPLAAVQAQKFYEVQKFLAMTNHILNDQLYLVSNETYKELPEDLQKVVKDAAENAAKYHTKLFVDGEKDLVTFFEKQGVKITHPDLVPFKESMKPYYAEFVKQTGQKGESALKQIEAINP

[2] = molecular target: FLIP-SA (ECFP-SiaP-Venus); sialic acid periplasmic binding protein SiaP (Haemophilus influenzae, UniProt P44542, R150D); details: PBS 20 mM, pH 6.5-7.0; sensor 0.20 mg/ml
FLIP-SA (ECFP-SiaP-Venus); sialic acid periplasmic binding protein SiaP (Haemophilus influenzae, UniProt P44542, R150D), sequence (P44542 24-329 R150D): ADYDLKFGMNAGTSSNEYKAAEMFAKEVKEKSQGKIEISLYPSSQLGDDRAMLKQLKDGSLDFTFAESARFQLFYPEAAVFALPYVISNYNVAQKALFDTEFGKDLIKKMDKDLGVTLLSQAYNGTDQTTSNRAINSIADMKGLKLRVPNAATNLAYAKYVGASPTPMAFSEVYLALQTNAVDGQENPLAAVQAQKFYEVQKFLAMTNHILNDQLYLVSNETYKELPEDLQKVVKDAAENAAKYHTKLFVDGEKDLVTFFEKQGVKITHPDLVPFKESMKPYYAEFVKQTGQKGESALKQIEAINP

[3] = molecular target: FLIP-SA (ECFP-SiaP-Venus); sialic acid periplasmic binding protein SiaP (Haemophilus influenzae, UniProt P44542, D72K); details: PBS 20 mM, pH 6.5-7.0; sensor 0.20 mg/ml
FLIP-SA (ECFP-SiaP-Venus); sialic acid periplasmic binding protein SiaP (Haemophilus influenzae, UniProt P44542, D72K), sequence (P44542 24-329 D72K): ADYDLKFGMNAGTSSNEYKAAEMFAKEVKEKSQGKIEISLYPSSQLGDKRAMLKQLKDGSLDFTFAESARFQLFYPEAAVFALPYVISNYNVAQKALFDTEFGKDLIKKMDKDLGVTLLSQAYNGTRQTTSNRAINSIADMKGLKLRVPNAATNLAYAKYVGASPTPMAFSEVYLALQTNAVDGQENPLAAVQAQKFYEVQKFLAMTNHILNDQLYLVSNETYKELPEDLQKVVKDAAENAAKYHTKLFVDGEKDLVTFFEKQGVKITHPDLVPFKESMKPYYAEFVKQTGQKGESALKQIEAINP

[4] = molecular target: FLIP-SA (ECFP-SiaP-Venus); sialic acid periplasmic binding protein SiaP (Haemophilus influenzae, UniProt P44542, E90N); details: PBS 20 mM, pH 6.5-7.0; sensor 0.20 mg/ml
FLIP-SA (ECFP-SiaP-Venus); sialic acid periplasmic binding protein SiaP (Haemophilus influenzae, UniProt P44542, E90N), sequence (P44542 24-329 E90N): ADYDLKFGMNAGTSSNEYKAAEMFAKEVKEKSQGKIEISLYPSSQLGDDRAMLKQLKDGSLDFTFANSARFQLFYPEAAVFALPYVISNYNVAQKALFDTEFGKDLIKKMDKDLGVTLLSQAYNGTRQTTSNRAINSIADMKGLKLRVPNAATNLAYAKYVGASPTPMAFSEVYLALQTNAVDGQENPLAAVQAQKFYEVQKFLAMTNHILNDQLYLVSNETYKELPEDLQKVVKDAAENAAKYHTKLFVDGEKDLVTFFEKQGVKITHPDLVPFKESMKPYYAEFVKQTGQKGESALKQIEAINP

For `CC(=O)N[C@H]1[C@H]([C@H](O)[C@H](O)CO)OC(O)(C(=O)O)C[C@@H]1O` (stereo partly shown) [NeuAc], the Kd [1] was 157 µM, the Kd [2] was 0.51 µM and the Kd [3] was 0.013 µM. For the same compound, the Kd [4] was 600 µM.
